The record followed here is PMC3034214, “Inhibition of Escherichia coli glycosyltransferase MurG and Mycobacterium tuberculosis Gal transferase by uridine-linked transition state mimics” (Bioorganic & Medicinal Chemistry, 2010).

As a reminder, the inhibition is the drop in the measured response relative to a control, in per cent. One may read the IC50 as the point on the concentration scale where inhibition reaches its midpoint. Read a low IC50 as higher potency.

For assay [1], the system named is Pseudomonas putida. Briefly: Antibacterial testing, growth in LB in 96-well plates (OD 595 nm). The settings on record: ATCC 33015.
Protocol: (§1) The following procedure was performed using P. putida (ATCC 33015), M. luteus (ATCC 13513), E. coli BL21 and B. subtilis W23. A single colony of the bacterial strain was picked from an LB agar plate and grown in 10 ml of sterile LB medium overnight at 37 °C. 1 ml of this culture was then used to inoculate 50 ml of sterile LB medium at 2%. Hundred microlitres of this 2% culture was pipetted into each well of a 96-well plate. Hundred microlitres of sterile water or sterile aqueous inhibitor solution (200 μg/ml or 1 mg/ml) were then pipetted into each well and the 96-well plates were incubated at 37 °C. Bacterial growth was monitored by measuring the OD at 595 nm at 3, 6 and 24 h.
The subject of assay [2] is B. subtilis. Described as above. The conditions noted are these: B. subtilis W23.
Protocol: as §1
Assay [3] concerns Micrococcus luteus. The assay is described as above. The settings on record: read-out: Growth inhibition of M. luteus.
In assay [4] the test system is E. coli. The assay is described as above. In kind it is cell-based, Escherichia coli. The conditions noted are these: E. coli BL21.
In assay [5] the test system is Mycobacterium tuberculosis galactosyltransferase GlfT2. Briefly: Galactosyltransferase assay ([14C]Gal incorporation into Galf(β1→6)Galf-O-C8 acceptor, membranes and cell wall fraction). The class given is biochemical. The conditions noted are these: read-out: Percentage inhibition of Mt GTase (Mycobacterium tuberculosis galactosyl transferase). The source says:
The arabinogalactan cell wall polymer of M. tuberculosis is biosynthesised through the action of a series of glycosyltransferases,[16] several of which use UDP-sugar substrates, and therefore might be inhibited by this class of compound. We have characterised a UDP-galactose-dependent galactosyltransferase activity GlfT2, which can be assayed using specific neoglycolipid acceptors in the presence of membranes and Galf(β1→6)Galf-O-C8 resulting in excellent [[14]C]Galf incorporation from UDP-[^14C]Galp, following endogenous conversion to UDP-[^14C]Galf and transferase activity (Fig. 4).[17] […] The complete chemical characterisation of the enzymatically synthesised products along with the identity of the galactosyltransferase gene product were previously reported.[17]
Liquid cultures of Mycobacterium smegmatis mc^2155 were grown at 37 °C in Luria Bertoni (LB) broth medium (Difco) supplemented with 0.05% Tween 80, biomass harvested, washed with phosphate buffered saline (PBS) and stored at −20 °C until further use. M. smegmatis cells (10 g wet weight) were washed and re-suspended in 30 ml of buffer A, containing 50 mM MOPS (adjusted to pH 8.0 with KOH), 5 mM β-mercaptoethanol and 10 mM MgCl2 at 4 °C and subjected to probe sonication (Soniprep 150, MSE Sanyo Gallenkamp, Crawley, Sussex, UK; 1 cm probe) for a total time of 10 min in 60 s pulses and 90 s cooling intervals between pulses. The sonicate centrifuged at 27,000g for 60 min at 4 °C. The resulting mycobacterial cell wall pellets were re-suspended in buffer A. Percoll (Pharmacia, Sweden) was added to yield a 60% suspension and centrifuged at 27,000g for 1 h at 4 °C. The upper, particulate diffuse cell wall enzymatically active (P60) band was collected and washed three times with buffer A and re-suspended in buffer A at a final protein concentration of 10 mg/ml. Membrane fractions were obtained by centrifugation of the 27,000g supernatant at 100,000g for 1 h at 4 °C. The supernatant was carefully removed and the membranes gently re-suspended in buffer A at a protein concentration of 20 mg/ml. Protein concentrations were determined using the BCA Protein Assay Reagent kit (Pierce Europe, Oud-Beijerland, Netherlands).
The reaction mixtures were then incubated at 37 °C for 1 h. A CHCl3/CH3OH (1:1, 533 μl) solution was then added to the incubation tubes and the entire contents centrifuged at 18,000g. The supernatant was recovered and dried under a stream of argon and re-suspended in C2H5OH/H2O (1:1, 1 ml) and loaded onto a pre-equilibrated (C2H5OH/H2O [1:1]) 1 ml Whatmann strong anion exchange (SAX) cartridge which was washed with 3 ml of ethanol. The eluate was dried and the resulting products partitioned between the two phases arising from a mixture of n-butanol (3 ml) and H20 (3 ml). The resulting organic phase was recovered following centrifugation at 3,500g and the aqueous phase was again extracted twice with 3 ml of n-butanol saturated water, the pooled extracts were back-washed twice with water saturated with n-butanol (3 ml). The n-butanol–saturated water fraction was dried and re-suspended in 200 μl of n-butanol. The total cpm of radiolabeled material extractable into the n-butanol phase was measured by scintillation counting using 10% of the labelled material and 10 ml of EcoScintA (National Diagnostics, Atlanta). The incorporation of [^14C]Gal was determined by subtracting counts present in control assays (incubation of the reaction components in the absence of the compounds).

In assay [6] the target is E. coli MurG (Escherichia coli, UniProt P17443). Briefly: Coupled radiochemical MraY/MurG assay ([3H]-UDPGlcNAc incorporation into lipid intermediate II). The settings on record: for inhibition at 1000 µM: read-out: Percentage inhibition of E. coli MurG.
E. coli MurG, sequence (P17443 whole entry): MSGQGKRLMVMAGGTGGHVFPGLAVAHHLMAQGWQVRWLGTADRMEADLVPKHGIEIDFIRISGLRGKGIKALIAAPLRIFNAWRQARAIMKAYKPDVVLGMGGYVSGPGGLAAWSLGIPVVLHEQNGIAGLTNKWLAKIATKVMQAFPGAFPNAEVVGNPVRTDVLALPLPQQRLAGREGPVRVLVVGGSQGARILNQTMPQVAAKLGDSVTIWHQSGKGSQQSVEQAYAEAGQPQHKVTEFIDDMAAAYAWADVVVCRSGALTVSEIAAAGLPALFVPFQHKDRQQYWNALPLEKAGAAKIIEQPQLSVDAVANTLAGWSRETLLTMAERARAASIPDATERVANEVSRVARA

Mycobacterium tuberculosis galactosyltransferase GlfT2, sequence (A0R628 whole entry): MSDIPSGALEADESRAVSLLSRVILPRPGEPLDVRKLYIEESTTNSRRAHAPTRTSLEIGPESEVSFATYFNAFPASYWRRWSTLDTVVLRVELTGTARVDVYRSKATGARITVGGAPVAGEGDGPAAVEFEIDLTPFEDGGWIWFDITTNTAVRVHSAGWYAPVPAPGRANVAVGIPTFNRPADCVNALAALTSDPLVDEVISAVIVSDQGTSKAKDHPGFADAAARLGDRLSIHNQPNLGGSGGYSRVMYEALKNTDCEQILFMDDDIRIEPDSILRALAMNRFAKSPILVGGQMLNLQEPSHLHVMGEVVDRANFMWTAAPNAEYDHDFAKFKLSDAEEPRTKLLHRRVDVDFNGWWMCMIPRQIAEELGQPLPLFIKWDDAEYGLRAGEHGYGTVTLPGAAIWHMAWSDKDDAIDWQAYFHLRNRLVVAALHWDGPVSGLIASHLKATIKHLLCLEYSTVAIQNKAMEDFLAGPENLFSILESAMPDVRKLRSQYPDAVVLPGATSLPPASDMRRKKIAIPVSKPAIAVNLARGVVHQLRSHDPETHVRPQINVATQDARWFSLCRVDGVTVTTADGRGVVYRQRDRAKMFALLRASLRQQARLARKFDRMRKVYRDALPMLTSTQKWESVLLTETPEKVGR

Regarding `COc1ccccc1[C@H]1N[C@@](C)(C(=O)NCC(=O)NC[C@H]2O[C@@H](n3ccc(=O)[nH]c3=O)[C@H](O)[C@@H]2O)[C@H]2C(=O)N(c3ccccc3)C(=O)[C@@H]12` (mixture of isomers) [13b], the “Antibacterial activity against Pseudomonas putida (in words)” value in assay [1] is “no effects”. For the same compound, the “Antibacterial activity against B. subtilis (in words)” value in assay [2] was “no effects”. Besides, the inhibition at 100 µg/mL in assay [3] was determined as 50%. In addition, in assay [4], the “Antibacterial activity against E. coli (in words)” value is “no effects”. Moreover, the inhibition at 1000 µM in assay [5] amounted to 0%. Also, in assay [6], the midpoint of inhibition, the IC50, lay at 0.4 mM and the inhibition at 1000 µM is 85%.
Turning to `COc1cccc([C@H]2N[C@@](C)(C(=O)NCC(=O)NC[C@H]3O[C@@H](n4ccc(=O)[nH]c4=O)[C@H](O)[C@@H]3O)[C@H]3C(=O)N(c4ccccc4)C(=O)[C@@H]23)c1OC` (mixture of isomers) [13c], the inhibition at 1000 µM in assay [5] and in assay [6] was 0% each time.
For `C[C@@]1(C(=O)NCC(=O)NC[C@H]2O[C@@H](n3ccc(=O)[nH]c3=O)[C@H](O)[C@@H]2O)N[C@H](C(O)CO)[C@@H]2C(=O)N(c3ccccc3)C(=O)[C@@H]21` (mixture of isomers) [13e], the inhibition at 1000 µM in assay [5] and in assay [6] was 0% throughout.
For `COC(=O)[C@H]1[C@@H](c2ccccc2)N[C@@](C)(C(=O)NCC(=O)NC[C@H]2O[C@@H](n3ccc(=O)[nH]c3=O)[C@H](O)[C@@H]2O)[C@@H]1C(=O)OC` (mixture of isomers) [14a], in assay [6], the inhibition at 1000 µM came to 0%.
As to `COC(=O)[C@H]1[C@@H](c2ccccc2OC)N[C@@](C)(C(=O)NCC(=O)NC[C@H]2O[C@@H](n3ccc(=O)[nH]c3=O)[C@H](O)[C@@H]2O)[C@@H]1C(=O)OC` (mixture of isomers) [14b], the results for the inhibition at 1000 µM in assay [5] and in assay [6] were 0% and 32%, respectively. Moreover, in assay [6], the IC50 is > 5 mM.
As to `COC(=O)C1C(C(O)CO)NC2(C)C(=O)N(CC(=O)NCC3OC(n4ccc(=O)[nH]c4=O)C(O)C3O)C(=O)C12` (mixture of isomers) [15e], in assay [6], the IC50 was > 5 mM and the inhibition at 1000 µM was 27%.
On to `COC(=O)[C@H]1[C@@H](c2ccccc2OC)N[C@@](C)(C(=O)N2CCC[C@H]2C(=O)NC[C@H]2O[C@@H](n3ccc(=O)[nH]c3=O)[C@H](O)[C@@H]2O)[C@H]1C(=O)OC` (mixture of isomers) [20b], for which the inhibition at 1000 µM in assay [5] and in assay [6] was 0% throughout.
As for `COC(=O)[C@H]1[C@@H](c2ccccc2OC)N[C@@](C)(C(=O)N2CCC[C@H]2C(=O)NC[C@H]2O[C@@H](n3ccc(=O)[nH]c3=O)[C@H](O)[C@@H]2O)[C@@H]1C(=O)OC` (mixture of isomers) [20c], the inhibition at 1000 µM in assay [5] was found to be 0%; in assay [6], 22%.
For `CCN1C(=O)C2[C@@H](C1=O)[C@@H](C(O)CO)N[C@@]2(C)C(=O)N1CCC[C@H]1C(=O)NC[C@H]1O[C@@H](n2ccc(=O)[nH]c2=O)[C@H](O)[C@@H]1O` (mixture of isomers) [20d], the inhibition at 1000 µM in assay [5] and in assay [6] was 0% in each case.
Take `COc1ccccc1[C@H]1N[C@@](C)(COC(=O)CCC(=O)OC[C@H]2O[C@@H](n3ccc(=O)[nH]c3=O)[C@H](O)[C@@H]2O)[C@H]2C(=O)N(c3ccccc3)C(=O)[C@@H]12` (mixture of isomers) [compound 25]: the inhibition at 1000 µM in assay [5] was 0%. Also, in assay [6], the “Inhibition of / binding to MurG (in words)” value (“Inhibition of / binding” for short) is given as “weak activity” and the inhibition at 1000 µM was 15%.
On to `COC(=O)C1C(c2ccc(OC)c(OC)c2)NC2(C)C(=O)N(CC(=O)NCC3OC(n4ccc(=O)[nH]c4=O)C(O)C3O)C(=O)C12` (centres unmarked) [16d], for which the inhibition at 1000 µM in assay [5] was found to be 0%; in assay [6] it was 26%. The IC50 in assay [6] was 4 mM.
Consider `COc1ccccc1[C@@H]1[C@@H]2C(=O)N(c3ccccc3)C(=O)[C@@H]2[C@H](C(=O)N(C)CC(=O)NC[C@H]2O[C@@H](n3ccc(=O)[nH]c3=O)[C@H](O)[C@@H]2O)N1C` [compound 19], for which, in assay [6], the “Inhibition of / binding” value was “did bind to MurG” and the inhibition at 1000 µM stood at 31%.
For the compound `COc1ccccc1[C@H]1N[C@@](C)(COC(=O)CC(=O)OC[C@H]2O[C@@H](n3ccc(=O)[nH]c3=O)[C@H](O)[C@@H]2O)[C@H]2C(=O)N(c3ccccc3)C(=O)[C@@H]12` [compound 24], the inhibition at 1000 µM in assay [5] came out at 0%. In assay [6], the “Inhibition of / binding” value was “weak activity” and the inhibition at 1000 µM worked out at 17%.
As for ramoplanin [reference compound], the “Inhibition of MurG” value in assay [6] (20 μM ramoplanin) is reported as > 90%.
